Where only a bound is given, the exact number is not on record here.

In assay [1] the test system is human large intestine cancer cell line HCT-116. The experiment in a line: In vitro cell growth inhibitory activity against human large intestine cancer line by combined use with chemotherapeutic. In kind it is cell-based. The following applies: HCT-116, 3 days, single-agent treatment. Here is the method: A human large intestine cancer cell line HCT-116 (obtained from DS Pharma Biomedical Co., Ltd.) was cultured in a McCoy's 5A medium (manufactured by Thermo Fisher Scientific, Inc.) containing 10% fetal bovine serum (FBS) (manufactured by Thermo Fisher Scientific, Inc.) and 1% penicillin/streptomycin/amphotericin B (manufactured by Thermo Fisher Scientific, Inc.) and inoculated at 0.5 to 2.0×10^3 cells/well to a 96-well plate. The cells were cultured overnight in a carbon dioxide incubator of 37° C. containing 5% carbon dioxide. The medium was replaced with a fresh medium on the next day, and then, a mixed solution of a DMSO solution of a test compound (IV-361, 5-FU or SN-38) with varying concentrations and a cell culture medium (final DMSO concentration: 0.2%) was added thereto. The concentration of the test compound was 10 nM, the concentration of 5-FU (manufactured by Wako Pure Chemical Industries, Ltd.) was 1000 nM, and the concentration of SN-38 (manufactured by Tocris Bioscience) was adjusted to 1 nM to carry out the test. For a control group, a mixed solution of DMSO and a cell culture medium (final DMSO concentration: 0.2%) was used instead of the DMSO solution of the test compound.
After the addition of the DMSO solution of the test compound, the cells were cultured for 3 days in a carbon dioxide incubator. Then, the absorbance (measurement wavelength: 565 nm) of the medium in each group was measured by using In Vitro Toxicology Assay Kit Sulforhodamine B based (manufactured by Sigma-Aldrich Co. LLC.).
The rate of inhibition of growth (%) was calculated according to the expression given below. Specifically, in the case where the difference between the average absorbance before culture (day 0) and the average absorbance after culture in the test compound-administered group is the same as the difference between the average absorbance before culture (day 0) and the average absorbance after culture in the control group, the rate of inhibition of cell growth is 0%. Rate of inhibition of growth=(1−((Average absorbance of the test compound-administered group after culture)−(Average absorbance of the test compound-administered group on day 0))/((Average absorbance of the control group after culture)−(Average absorbance of the control group on day 0)))×100

In assay [2] the test system is human large intestine cancer cell line (HCT-116) tumor. The experiment in a line: In vivo tumor growth inhibition test for human large intestine cancer cell line by combined use with chemotherapeutic. The note with it: alone.
Procedure: The prepared cell suspension was subcutaneously injected at 0.1 mL/mouse to the right abdomens of female BALB nude mice (supplied by Charles River Laboratories Japan, Inc.).
Individuals whose tumor volume was within the range of 50 to 200 mm^3 were selected and grouped such that the tumor volume was almost equivalent. After the grouping, a test compound or only a solvent was administered in a repeated manner to the mice of each group as follows:
Single-agent administration group:
Control group: solvent (administered once a day)
5-FU, oxaliplatin, and irinotecan were intraperitoneally administered (5 mL/kg).
After a lapse of a predetermined period, the body weights of the mice of each group and the long diameter and short diameter of tumor were measured, and the tumor volume of the test compound-administered group with respect to the tumor volume of the control group was calculated as the rate of suppression of tumor volume (%).
In assay [3] the test system is human large intestine cancer cell line (HCT-116). Nature of the assay: Human large intestine cancer (HCT-116) cell growth inhibition test. The following applies: HCT-116 (row of Table 50), read-out: GI50 value (concentration necessary for inhibiting 50% of cell growth). In kind it is cell-based. Put shortly:
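HCT-116 cells were seeded at 0.5 to 2.0×10^3 cells/well in McCoy's 5A with 10% FBS and dosed with compound at 0.1% final DMSO after overnight culture. Growth was measured by sulforhodamine B absorbance after 3 days. GI50 was calculated from the inhibition rate at each concentration.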

For assay [4], the system named is breast cancer cell line BT-549. The experiment in a line: Various human cancer cell growth inhibition test: BT-549. Type of assay: cell-based. The note with it: ATPlite, read-out: GI50 value (concentration necessary for inhibiting 50% of cell growth). From the text:
(§1) A breast cancer cell line BT-549 (obtained from American Type Culture Collection (ATCC)), a uterus cancer cell line C-33A (obtained from ATCC), an ovary cancer cell line PA-1 (obtained from ATCC), a large-cell lung cancer cell line NCI-H460 (obtained from ATCC), a small-cell lung cancer cell line NCI-H82 (obtained from ATCC), a kidney cancer cell line ACHN (obtained from ATCC), a pancreatic cancer cell line BxPC-3 (obtained from ATCC), a malignant melanoma cell line A375 (obtained from ATCC), a throat cancer cell line FaDu (obtained from ATCC), a medulloblastoma cell line Daoy (obtained from ATCC), a cutaneous epithelioid sarcoma cell line VA-ES-BJ (obtained from ATCC), a rhabdomyosarcoma cell line A-204 (obtained from ATCC), a prostate cancer cell line DU145 (obtained from ATCC), a bladder cancer cell line T24 (obtained from ATCC), a lymphoma cell line SR (obtained from ATCC), a neuroblastoma cell line SH-SY5Y (obtained from DS Pharma Biomedical Co., Ltd.), a liver cancer cell line HepG2 (obtained from DS Pharma Biomedical Co., Ltd.), a stomach cancer cell line HGC-27 (obtained from DS Pharma Biomedical Co., Ltd.), and a multiple myeloma cell line NCI-H929 (obtained from DS Pharma Biomedical Co., Ltd.) were used as human cancer cell lines.
(§2) Each cell line was cultured in a cell culture medium recommended by ATCC or DS Pharma Biomedical Co., Ltd. and inoculated at 0.3 to 5.0×10^3 cells/well to a 96-well plate. The cells were cultured overnight in a carbon dioxide incubator of 37° C. containing 5% carbon dioxide. The medium was replaced with a fresh medium on the next day, then replaced with a mixed solution of a DMSO solution of a test compound with varying concentrations and a culture medium (final DMSO concentration: 0.1%), and left standing in a carbon dioxide incubator (day 0). IV-361, IV-379, IV-3, IV-215, IV-299, IV-669, IV-1049, and palbociclib (for comparison) were used as test compounds. For a control group, DMSO was added instead of the DMSO solution of the test compound to a cell culture medium (final DMSO concentration: 0.1%).
(§3) After culture for a predetermined period, the ATP activity of BT-549, C-33A, PA-1, NCI-H460, NCI-H82, ACHN, BxPC-3, A375, FaDu, Daoy, VA-ES-BJ, A-204, DU145, T24, and SR was measured by using ATPlite (manufactured by PerkinElmer, Inc.). The ATP activity of SH-SY5Y, HepG2, HGC-27, and NCI-H929 was measured by using CellTiter-Glo (manufactured by Promega Corp.).
(§4) The rate of inhibition of cell growth (%) was calculated according to the expression given below. Specifically, in the case where the difference between the ATP activity before culture (day 0) and the ATP activity after culture in the test compound-administered group is the same as the difference between the ATP activity before culture (day 0) and the ATP activity after culture in the control group, the rate of inhibition of cell growth is 0%. Rate of inhibition of cell growth=(1−((ATP activity of the test compound-administered group after culture)−(ATP activity of the test compound-administered group on day 0))/((ATP activity of the control group after culture)−(ATP activity of the control group on day 0)))×100
(§5) The concentration of the test compound necessary for inhibiting 50% of cell growth (GI50 value) was calculated by using EXSUS (version 8.1.0, manufactured by CAC Exicare Corp.).

Assay [5] relates to uterus cancer cell line C-33A. The experiment in a line: Various human cancer cell growth inhibition test: C-33A. Type of assay: cell-based. The note with it: ATPlite, read-out: GI50 value (concentration necessary for inhibiting 50% of cell growth).
Text: as §1, §2, §3, §4, §5

In assay [6] the test system is ovary cancer cell line PA-1. The experiment in a line: Various human cancer cell growth inhibition test: PA-1. In kind it is cell-based. The note with it: ATPlite, read-out: GI50 value (concentration necessary for inhibiting 50% of cell growth).
Text: as §1, §2, §3, §4, §5

Assay [7] relates to large-cell lung cancer cell line NCI-H460. The experiment in a line: Various human cancer cell growth inhibition test: NCI-H460. Type of assay: cell-based. The following applies: ATPlite, read-out: GI50 value (concentration necessary for inhibiting 50% of cell growth).
Text: as §1, §2, §3, §4, §5

The subject of assay [8] is small-cell lung cancer cell line NCI-H82. The experiment in a line: Various human cancer cell growth inhibition test: NCI-H82. Type of assay: cell-based. The following applies: ATPlite, read-out: GI50 value (concentration necessary for inhibiting 50% of cell growth).
Text: as §1, §2, §3, §4, §5

For assay [9], the system named is kidney cancer cell line ACHN. The experiment in a line: Various human cancer cell growth inhibition test: ACHN. The following applies: ATPlite, read-out: GI50 value (concentration necessary for inhibiting 50% of cell growth). In kind it is cell-based.
Text: as §1, §2, §3, §4, §5

Assay [10] has as its system pancreatic cancer cell line BxPC-3. Nature of the assay: Various human cancer cell growth inhibition test: BxPC-3. In kind it is cell-based. The following applies: ATPlite, read-out: GI50 value (concentration necessary for inhibiting 50% of cell growth).
Text: as §1, §2, §3, §4, §5

The subject of assay [11] is malignant melanoma cell line A375. Nature of the assay: Various human cancer cell growth inhibition test: A375. Type of assay: cell-based. The note with it: A-375, ATPlite, read-out: GI50 value (concentration necessary for inhibiting 50% of cell growth).
Text: as §1, §2, §3, §4, §5

For assay [12], the system named is throat cancer cell line FaDu. The experiment in a line: Various human cancer cell growth inhibition test: FaDu. Type of assay: cell-based. The following applies: ATPlite, read-out: GI50 value (concentration necessary for inhibiting 50% of cell growth).
Text: as §1, §2, §3, §4, §5

Assay [13] has as its system rhabdomyosarcoma cell line A-204. The experiment in a line: Various human cancer cell growth inhibition test: A-204. Type of assay: cell-based. The note with it: A204, ATPlite, read-out: GI50 value (concentration necessary for inhibiting 50% of cell growth).
Text: as §1, §2, §3, §4, §5

The subject of a further assay is lymphoma cell line SR. Nature of the assay: Various human cancer cell growth inhibition test: SR. Type of assay: cell-based. The following applies: ATPlite, read-out: GI50 value (concentration necessary for inhibiting 50% of cell growth).
Text: as §1, §2, §3, §4, §5

As for `O=c1[nH]cc(F)c(=O)[nH]1` [5-FU, 5-Fluorouracil, reference compound], in assay [1] (Homo sapiens, 72 h, 5-FU 1000 nM, read-out: Rate of inhibition of growth (%)), the inhibition at 1 µM came to 25%. Also, the “Rate of suppression of tumor volume” value in assay [2] (Table 52, 5-FU 15 mg/kg/day intraperitoneal) is listed as 21%.
On to `O=C1[O][Pt]2([NH][C@@H]3CCCC[C@H]3[NH]2)[O]C1=O` [Oxaliplatin, oxaliplatin, reference compound], for which, in [2] (Table 53, oxaliplatin 3 mg/kg/day intraperitoneal), the “Rate of suppression of tumor volume” value was found to be 44%.
Regarding `CC(=O)c1c(C)c2cnc(Nc3ccc(N4CCNCC4)cn3)nc2n(C2CCCC2)c1=O` [Palbociclib, palbociclib, reference compound], the GI50 in [3] is 300 to 1000 nM; in [4] it was no less than 1000 nM; in assay [5] it was no less than 1000 nM; in [6] it was less than 300 nM; in assay [7] it was less than 300 nM; in assay [8], no less than 1000 nM. For the same compound, the GI50 was less than 300 nM in assay [9]; less than 300 nM in [10]; less than 300 nM in assay [11]; no less than 1000 nM in [12]; no less than 1000 nM in assay [13]; less than 300 nM in the assay with lymphoma cell line SR.
Turning to `CCc1c2c(nc3ccc(O)cc13)-c1cc3c(c(=O)n1C2)COC(=O)[C@]3(O)CC` [SN-38, reference compound], the “Rate of inhibition of growth (%)” value in [1] (SN-38 1 nM) is reported as 12%.

The values are drawn from patent publication US10894798B2, “Substituted dihydropyrrolopyrazole derivative” (UBE INDUSTRIES, LTD., priority 2015, dated 2021).
